Experimental data from PubChem BioAssay AID2060326 (Molecular Pharmacology Branch, DTP, NCI, 2025).
Where “and” joins values, the source holds several entries; their conditions need not be identical. Equal values may be shown once.

System: MDA-MB-468 multi-cell spheroids, viability
Experiment: Anticancer human tumor MDA-MB-468 cell line growth inhibition [IpAb];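 note: spheroids exposed to agents for seven days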
Conditions: for viability, T/C: stronger effect = lower value; active = viability on the fitted dose curve at most 10% of control; inactive = the rest
From the text: Combinatorial screen of targeted agents with ipatasertib and abemaciclib in multi-cell type tumor spheroids
A high-throughput screen of multi-cell type tumor spheroids was designed to identify active combinations of targeted small molecules and ipatasertib or abemaciclib. Complex spheroids include a stromal component modeled by human endothelial cells (HUVEC) and fibroblasts modeled by human mesenchymal stem cells (MSCs). The concentration ranges selected for each drug and investigational agent were based upon clinically achievable concentrations if the clinical Cmax of the agent was known.
Compounds. The drugs and investigational agents: ipatasertib (NSC767898), abemaciclib(NSC768073), selumetinib (NSC741078), trametinib (758246), adavosertib (NSC754352), everolimus (NSC733504), sapanisertib (NSC764658), vemurafenib (NSC761431), venetoclax (NSC766270), copanlisib (NSC809693), apelisib (NSC765974), palbociblib (NSC758247), vemurafenib (NSC761431), dabrafenib (NSC764134), ravoxertinib (NSC781343), BMS-387032 (NSC767048), sotorasib (NSC818433), talazoparib (NSC767125) and afursertib (NSC778305), were obtained from the National Cancer Institute (NCI) Developmental Therapeutics Program Chemical Repository. The FDA-approved anticancer drug set is available from the NCI Developmental Therapeutics Program. […] The stock solutions were prepared in dimethyl sulfoxide (DMSO, Sigma-Aldrich, St. Louis, MO, cat. D2650) at 800-fold the tested concentration and stored at -70 degrees C prior to their use. All drugs and investigational agents were tested over a range starting from a high concentration at or near the clinical Cmax and decreasing in half-log increments. If the clinical Cmax for an agent had not been determined, the highest concentration tested was 10 microM.
NCI60 Cell Culture. NCI60 cell lines were obtained from the NCI Developmental Therapeutics Program Tumor Repository. For each lot of cells, the Repository performed Applied Biosystems AmpFLSTR Identifiler testing with PCR amplification to confirm consistency with the published Identifier STR profile for each cell line. Cells were kept in continuous culture for no more than 20 passages. The optimal seeding densities for each of the cell lines at each time point assessed were determined prior to performing the concentration response studies. Briefly, the NCI60 human tumor lines were grown as monolayers in RPMI 1640 medium supplemented with 10% FBS and 2 mmol/L L-glutamine.
An additional 9 lines were from the NCI60 cell line panel including MDA-MB-231 breast carcinoma, MDA-MB-468 breast carcinoma, MCF7 breast carcinoma, Hs578T breast carcinoma, MALME-3M melanoma, SK-MEL-2 melanoma, SK-OV-3 ovarian carcinoma, DU-145 prostate carcinoma, PC-3 prostate carcinoma, all cell lines along with major genetic alterations are listed on Table 2. Pooled donor human umbilical vein endothelial cells (HUVEC, Lonza, cat. CC-2519) and human mesenchymal stem cells (hMSC, Lonza, cat. PT-2501) were purchased from Lonza (Walkersville, MD).
PDMR cell lines were grown in complete medium (DC medium): Dulbecco's modified Eagle's medium (DMEM)/F12 supplemented with 5% fetal bovine serum (FBS), 2 mM L-glutamine, 100 U/mL penicillin and 100 µg/ml streptomycin, 0.4 µg/ml hydrocortisone, 10 ng/ml epidermal growth factor (EGF) recombinant human protein, 24 µg/mL adenine, and 0.1 mg/mL primocin. During culture from frozen stock vials, PDMR cells were cultured in the same medium containing 10 µM Y-27632 (see Table 3). The PDCs were cultured in complete DMEM/F12 media without 10 microM Y-27632 dihydrochloride for at least two passages prior to the screen. The pooled donor HUVEC and hMSC were cultured in endothelial cell growth medium 2 (PromoCell, Heidelberg, Germany, cat. C-22011) and mesenchymal stem cell growth medium 2 (PromoCell, cat. C-28009), respectively. For all experiments, HUVEC and hMSC were used at passages </=5.
[…]

[1] = curve of first compound, second compound 0.01 µM
[2] = curve of first compound, second compound 0.0316 µM
[3] = curve of first compound, second compound 0.1 µM
[4] = curve of first compound, second compound 0.316 µM
[5] = curve of first compound, second compound 1 µM
[6] = second compound 0.01 µM, first compound 0.0316 µM
[7] = second compound 0.01 µM, first compound 0.1 µM
[8] = second compound 0.01 µM, first compound 0.316 µM
[9] = second compound 0.01 µM, first compound 1 µM
[10] = second compound 0.01 µM, first compound 3.16 µM
[11] = second compound 0.01 µM, first compound 10 µM
[12] = second compound 0.0316 µM, first compound 0.0316 µM
[13] = second compound 0.0316 µM, first compound 0.1 µM
[14] = second compound 0.0316 µM, first compound 0.316 µM
[15] = second compound 0.0316 µM, first compound 1 µM
[16] = second compound 0.0316 µM, first compound 3.16 µM
[17] = second compound 0.0316 µM, first compound 10 µM
[18] = second compound 0.1 µM, first compound 0.0316 µM
[19] = second compound 0.1 µM, first compound 0.1 µM
[20] = second compound 0.1 µM, first compound 0.316 µM
[21] = second compound 0.1 µM, first compound 1 µM
[22] = second compound 0.1 µM, first compound 3.16 µM
[23] = second compound 0.1 µM, first compound 10 µM
[24] = second compound 0.316 µM, first compound 0.0316 µM
[25] = second compound 0.316 µM, first compound 0.1 µM
[26] = second compound 0.316 µM, first compound 0.316 µM
[27] = second compound 0.316 µM, first compound 1 µM
[28] = second compound 0.316 µM, first compound 3.16 µM
[29] = second compound 0.316 µM, first compound 10 µM
[30] = second compound 1 µM, first compound 0.0316 µM
[31] = second compound 1 µM, first compound 0.1 µM
[32] = second compound 1 µM, first compound 0.316 µM
[33] = second compound 1 µM, first compound 1 µM
[34] = second compound 1 µM, first compound 3.16 µM
[35] = second compound 1 µM, first compound 10 µM

CC(=O)c1c(C)c2cnc(Nc3ccc(N4CCNCC4)cn3)nc2n(C2CCCC2)c1=O
inactive: viability, T/C (compound 0.000949 µM) 93.7% and 99% | viability, T/C (compound 0.003 µM) 91.4% and 97.5% | viability, T/C (compound 0.00949 µM) 92% and 93.8% | viability, T/C (compound 0.03 µM) 88.1% and 91.8% | viability, T/C (compound 0.0949 µM) 92.4% and 81.4% | viability, T/C (compound 0.3 µM) 90.2% and 73.4%
> 300 nM: IC50 (curve of compound)

Cn1ncc(Cl)c1-c1cc(C(=O)NC(CN)Cc2cccc(F)c2)sc1Cl (configuration not stated) + CCN1CCN(Cc2ccc(Nc3ncc(F)c(-c4cc(F)c5nc(C)n(C(C)C)c5c4)n3)nc2)CC1
223 nM: IC50 [5]
461 nM: IC50 [1]
inactive: viability, T/C [6] 88.4% | viability, T/C [7] 74.1% | viability, T/C [8] 57.7% | viability, T/C [9] 36.6% | viability, T/C [10] 11.8% | viability, T/C [12] 97.3% | viability, T/C [13] 58.5% | viability, T/C [14] 48% | viability, T/C [15] 34.1% | viability, T/C [16] 15.1% | viability, T/C [18] 109% | viability, T/C [19] 72% | viability, T/C [20] 51.5% | viability, T/C [21] 31.8% | viability, T/C [22] 11.2% | viability, T/C [24] 81.2% | viability, T/C [25] 72.6% | viability, T/C [26] 53.4% | viability, T/C [27] 32.6% | viability, T/C [30] 81.5% | viability, T/C [31] 52.9% | viability, T/C [32] 53.4% | viability, T/C [33] 26%
396 nM: IC50 [4]
active: viability, T/C [11] 0.13% | viability, T/C [17] 0.12% | viability, T/C [23] 0.11% | viability, T/C [28] 5.2% | viability, T/C [29] 0.11% | viability, T/C [34] 2.78% | viability, T/C [35] 0.19%
319 nM: IC50 [2]
318 nM: IC50 [3]

C=CC(=O)N1CCN(c2nc(=O)n(-c3c(C)ccnc3C(C)C)c3nc(-c4c(O)cccc4F)c(F)cc23)C(C)C1 (configuration not stated) + CCN1CCN(Cc2ccc(Nc3ncc(F)c(-c4cc(F)c5nc(C)n(C(C)C)c5c4)n3)nc2)CC1
7470 nM: IC50 [1]
6440 nM: IC50 [4]
7210 nM: IC50 [2]
7150 nM: IC50 [5]
6740 nM: IC50 [3]
inactive: viability, T/C [6] 109% | viability, T/C [7] 117% | viability, T/C [8] 110% | viability, T/C [9] 113% | viability, T/C [10] 93.2% | viability, T/C [11] 35.1% | viability, T/C [12] 98.6% | viability, T/C [13] 90.9% | viability, T/C [14] 108% | viability, T/C [15] 91.7% | viability, T/C [16] 79.8% | viability, T/C [17] 38.3% | viability, T/C [18] 101% | viability, T/C [19] 106% | viability, T/C [20] 100% | viability, T/C [21] 110% | viability, T/C [22] 97.6% | viability, T/C [23] 24.8% | viability, T/C [24] 103% | viability, T/C [25] 108% | viability, T/C [26] 116% | viability, T/C [27] 103% | viability, T/C [28] 83.7% | viability, T/C [29] 29.2% | viability, T/C [30] 84.2% | viability, T/C [31] 73% | viability, T/C [32] 81.8% | viability, T/C [33] 82.7% | viability, T/C [34] 74.7% | viability, T/C [35] 39.6%

Cc1nc(NC(=O)N2CCCC2C(N)=O)sc1-c1ccnc(C(C)(C)C(F)(F)F)c1 (configuration not stated) + CC(C)NCC(C(=O)N1CCN(c2ncnc3c2C(C)CC3O)CC1)c1ccc(Cl)cc1
3820 nM: IC50 [4]
inactive: viability, T/C [18] 82.6% | viability, T/C [19] 75.6% | viability, T/C [20] 79.1% | viability, T/C [21] 75.6% | viability, T/C [22] 72.3% | viability, T/C [23] 26.3% | viability, T/C [24] 61.5% | viability, T/C [25] 61.1% | viability, T/C [26] 58.9% | viability, T/C [27] 53.7% | viability, T/C [28] 57.1% | viability, T/C [29] 16.3% | viability, T/C [30] 47.8% | viability, T/C [31] 45.7% | viability, T/C [32] 48% | viability, T/C [33] 36.8% | viability, T/C [34] 31.4% | viability, T/C (second compound 3.16 µM, first compound 0.0316 µM) 32.6% | viability, T/C (second compound 3.16 µM, first compound 0.1 µM) 30.6% | viability, T/C (second compound 3.16 µM, first compound 0.316 µM) 25.5% | viability, T/C (second compound 3.16 µM, first compound 1 µM) 20.8% | viability, T/C (second compound 3.16 µM, first compound 3.16 µM) 20.6% | viability, T/C (second compound 10 µM, first compound 0.0316 µM) 16.3% | viability, T/C (second compound 10 µM, first compound 0.1 µM) 14.8% | viability, T/C (second compound 10 µM, first compound 0.316 µM) 13.2%
active: viability, T/C [35] 8.2% | viability, T/C (second compound 3.16 µM, first compound 10 µM) 4.36% | viability, T/C (second compound 10 µM, first compound 1 µM) 10.3% | viability, T/C (second compound 10 µM, first compound 3.16 µM) 7.57% | viability, T/C (second compound 10 µM, first compound 10 µM) 1.53%
< 31.6 nM: IC50 [5] | IC50 (curve of first compound, second compound 3.16 µM) | IC50 (curve of first compound, second compound 10 µM)
5510 nM: IC50 [3]
